Results on one molecule are retold here after US20120142771A1, “BIPHENYLACETAMIDE DERIVATIVE” (Dainippon Sumitomo Pharma Co., Ltd., priority 2008, published 2012).

Experiment [1] concerns subcutaneously pentetrazol-injected model (scPTZ). Put plainly: Subcutaneously pentetrazol-injected model (scPTZ) test. It counts as in vivo, mice. The conditions noted are these: pentetrazol 85 mg/kg s.c. after 1 hour. The method in brief: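 Pentetrazol (85 mg/kg, s.c.) was injected one hour after oral test compound at 50 or 100 mg/kg in groups of three male Slc:ddY mice weighing 20-30 g; vehicle controls got 0.5% tragacanth or 0.5% methylcellulose.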

Another experiment has as its system Slc: C57BL/6J male mice. The experiment in a line: Evaluation of antimanic effect (methamphetamine and chlordiazepoxide induced hyperactivity, locomotor distance). It counts as in vivo. The conditions noted are these: methamphetamine 4 mg/kg and chlordiazepoxide 10 mg/kg i.p. From the text:
Meanwhile, there are no reports about animal models which provide a good clinical prediction to evaluate the improving efficacy for bipolar disorder. However, bipolar disorder comprises “manic state” and “depressive state”, and some animals are reported to be useful as a model to evaluate the improvement of each pathological condition individually. In general, an index of manic state is excessive hyperactivity induced by administering methamphetamine and chlordiazepoxide in combination, and that of depressive state is immobility induced by forced swimming.
Test 7: Evaluation of Antimanic Effect
Test 7 evaluates the antimanic effect of medicaments. The evaluation system is a test system whose utility has been already confirmed with a known antimanic agent which is clinically used as a mood-stabilizing drug, not as a drug for treating schizophrenia (Arban et al., Behay. Brain Res., 158:123-132, 2005, Foreman et al., Pharmacol. Biochem. Behay., 89: 523-534, 2008). Test compounds were orally administered to Slc: C57BL/6J male mice (8 mice in each group, body weight 20-26 g). After 30 minutes of administration, methamphetamine (4 mg/kg) and chlordiazepoxide (10 mg/kg) were administered intraperitoneally. Then, the mice were allowed to move freely in an acrylic cage (W 360 mm×D 230 mm×H 310 mm) for 90 minutes. The locomotor distances of the mice were measured with Ethovision software (Ver. 3.1). Among the 90 minutes, the result of the latter 60 minutes with the exception of the first 30 minute's result for adaptation to the new environment was used as data of the locomotor distance. The antimanic effect was evaluated by calculating how long locomotor distance was shortened against the control. To the control mice, 0.5% methylcellulose solution was administered.

A further experiment deals with amygdala-kindling model. The experiment in a line: Amygdala-kindling model in rats. Format: in vivo. From the text: Test 3: Test with Amygdala-Kindling Model in Rats
Test 3 evaluates the anticonvulsant action of medicaments in rats, besides mice in Tests 1 and 2. Animal model (kindling model) used herein is a very similar model to clinical findings of focal onset seizures (i.e. simple partial seizure, complex partial seizure, and secondarily generalized tonic-clonic seizure), which is known to provide excellent clinical prediction. A chronic electrode was implanted in the cortex (frontal and posterior regions) and the amygdala of Slc: Wistar male rats (body weight 250-300 g). One week after the above operation, electrical stimulation (50 Hz, 400 μA, 1 second) into the amygdala was conducted once a day for about two weeks. The stimulation condition was determined according to the method of Loscher et al. [Epilepsy Res., 40: 63-77 (2000)]. The stimulation was continued until the seizure stage 5 in the seizure severity stages according to the method of Racine et al. [Motor seizure. Electroenceph. Clin. Neurophysiol., 32:281-294 (1972)] was observed 10 consecutive times. Kindling model was thus completed. Then, test compounds (100 mg/kg) were orally administered to this model. After an hour of administration, the rats were evaluated based on three parameters, i.e., a threshold stimulus current to induce seizure (i.e. seizure threshold), the duration of afterdischrage observed on an electroencephalogram, and seizure severity (stage scores 1-5). The results of the seizure threshold and the afterdischarge duration were shown as average percentage of change from the pretreatment value obtained before the administration of each test compound. To the control rats, 0.5% tragacanth solution was administered. Minus means decreased or shortened.

The test system of experiment [2] is maximum electroshock seizure (MES) model. The experiment in a line: Maximum electroshock seizure (MES) model test. It counts as in vivo, mice. An outline of the steps: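 Tonic hind-limb extension was elicited by corneal electroshock (60 Hz, 25 mA, 0.2 s) 1 h after oral dosing. Test compounds were given at 50 or 100 mg/kg to groups of 3 male Slc: ddY mice (20-30 g), vehicle controls receiving 0.5% tragacanth or 0.5% methylcellulose solution.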

Experiment [3] has as its system 6 Hz psychomotor seizure model. The experiment in a line: 6 Hz psychomotor seizure model. Format: in vivo, mice. Particulars: mice. An outline of the steps: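 Anticonvulsant activity was tested in the 6 Hz psychomotor seizure model in mice, a model reflecting seizures resistant to current antiepileptic drugs. 30 minutes or an hour after dosing, corneal electrical stimulation (6 Hz, 32 mA, 3 seconds) was applied to provoke forelimb myoclonus, Straub tail and immobility. Control mice received 0.5% tragacanth solution, 0.5% methylcellulose solution or olive oil.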

The mark [4] stands for this setting: oral administration at a dose of 100 mg/kg.

The term ED50 denotes the midpoint of the dose-response relation.

On to `NC(=O)Cc1ccccc1-c1ccccc1F` [Example 1, 2-(2′-Fluorobiphenyl-2-yl)acetamide], for which the responders at 50 mg/kg in experiment [1] (Mus musculus, po, 1 h, 50 mg/kg oral, Slc: ddY male mice, 3 per group, observed 30 minutes for clonic convulsion, read-out: scPTZ (positive number/tested number) (converted)) is 66.7%; in experiment [2] (Mus musculus, po, 1 h, 50 mg/kg oral, Slc: ddY male mice, 3 per group, electrical stimulation 1 hour after administration, inhibition of hind limb extension, read-out: MES (positive number/tested number) (converted)), 100%. For the same molecule, the responders at 100 mg/kg is 66.7% in experiment [1] (Mus musculus, po, 1 h, 100 mg/kg oral, Slc: ddY male mice, 3 per group, observed 30 minutes for clonic convulsion, read-out: scPTZ (positive number/tested number) (converted)) and 100% in experiment [2] (Mus musculus, po, 1 h, 100 mg/kg oral, Slc: ddY male mice, 3 per group, electrical stimulation 1 hour after administration, inhibition of hind limb extension, read-out: MES (positive number/tested number) (converted)). For the same molecule, the “anticonvulsant action in subcutaneously pentetrazol-injected model (scPTZ) test” value in experiment [1] (mice, oral 50 or 100 mg/kg) is “anticonvulsant action was observed”. Besides, the “The rate of the shortened locomotor-distance (% control)” value worked out at 24.1 % control with Slc: C57BL/6J male mice (30 mg/kg oral), 43.8 % control in the experiment with Slc: C57BL/6J male mice (60 mg/kg oral) and 73.8 % control in the experiment with Slc: C57BL/6J male mice (100 mg/kg oral). In addition, the “Seizure threshold (uA) Δ % change” value in the experiment on amygdala-kindling model (100 mg/kg oral, 1 hour after administration, average percentage of change from pretreatment value) worked out at 69.3%. In the experiment with amygdala-kindling model (100 mg/kg oral, 1 hour after administration, change from pretreatment value, minus means shortened), the “Afterdischarge duration (sec) Δ % change” value is −88%. The same molecule displayed a Seizure severity score with amygdala-kindling model (100 mg/kg oral, 1 hour after administration, stage scores 1-5) of 2.0. The “efficacy against the amygdala-kindling model” value in the experiment on amygdala-kindling model (setting [4]) is “potent efficacy”. For the same molecule, in experiment [2] (mice, oral 50 or 100 mg/kg, 1 hour after administration), the “anticonvulsant action in maximum electroshock seizure (MES) model test” value is given as “anticonvulsant action was observed”. Besides, the ED50 in experiment [3] (Mus musculus, 6 Hz psychomotor seizure model, oral, read-out: ED50) was 56.2 mg/kg. Also, the “efficacy in 6 Hz psychomotor seizure model” value in experiment [3] (setting [4]) was “potent efficacy”. The “6 Hz (Positive number/tested number)” value in experiment [3] (oral, dose 100 mg/kg, 30 minutes or 1 hour after administration) is 10/10/100.
